Series [1] in a line: Flux of estradiol from equilibrated acrylate adhesive matrices through a 10 mil Silastic membrane (Example 7, Table 2). The class given is in vitro ADME. The note with it: for Flux: 20 wt % acrylate matrix, 10 mil Silastic membrane, 32° C.; for average flux: average from Table 2 data. The method, then: Consequently, Crystal X provides an advantage in the preparation of pharmaceutical formulations comprising Crystal X especially transdermal drug delivery matrices. When Crystal X crystals are prepared in transdernal drug delivery formulations,the inherent increase in activity due to the higher thermodynamic activity of the Crystal X crystal versus E2-HH provides for increased flux. For example, equilibrated matrices containing Crystal X and E2-HH crystals were prepared in substantial accordance with the teaching of Example 7 herein and assayed for permeation through a Silastic membrane.
Measurement of estradiol flux was determined by drug flux through a 10 mil Silastic membrane in a modified Franz diffusion cells in substantial accordance with the following procedure. The adhesive matrix systems were peeled off the polyester release liner and placed on top of the Silastic membrane. Gentle pressure was applied to insure full contact between the drug adhesive layer and membrane. The membrane with the prototype system was then mounted carefully between the donor and the receiver compartments. The receiver compartment was filled nanopure water and the temperature was maintained at 32° C.±1° C. throughout the experimental period. Samples of receiver content was withdrawn and replaced with fresh buffer. Samples were assayed by HPLC.
Membrane flux (mg/cm^2 /hr) was determined by evaluating the cumulative flux of drug through a Silastic membrane over a given period of time and dividing by the time period. After steady state had been established, the flux values corresponding to steady state were averaged to obtain the flux value.
20 wt % acrylate adhesive matrices were prepared in accordance with Example 1. 20 % Crystal X was prepared in accordance with Example 3. The laminates were allowed to equilibrate for a period of 8 weeks to insure complete crystal structureation. Flux was determined as permeation through a 10 mil Silastic membrane as described above. The cumulative release of estradiol into the receiver was determined by HPLC method described above. The average flux over the period was calculated as the cumulative amount of drug in receiver divided by cumulative time.

For series [2] the following is noted: cited from earlier work.

Molecules are shown by their SMILES.

Turning to `C[C@]12CC[C@@H]3c4ccc(O)cc4CC[C@H]3[C@@H]1CC[C@@H]2O` [E2-HH], the Flux was 0.080 μg/cm^2 /hr in series [1] (2.5 hrs), 0.139 μg/cm^2 /hr in series [1] (8.375 hrs), 0.142 μg/cm^2 /hr in series [1] (17.625 hrs) and 0.146 μg/cm^2 /hr in series [1] (27.75 hrs). The compound also displayed an average flux in series [1] of 0.14 μg/cm^2 /hr.

With `C[C@]12CC[C@@H]3c4ccc(O)cc4CC[C@H]3[C@@H]1CC[C@@H]2O` [Crystal X, estra-1, 3, 5(10)-triene-3, 17β-diol], the Flux was 0.132 μg/cm^2 /hr in series [1] (2.5 hrs), 0.238 μg/cm^2 /hr in series [1] (8.375 hrs), 0.216 μg/cm^2 /hr in series [1] (17.625 hrs) and 0.220 μg/cm^2 /hr in series [1] (27.75 hrs). This compound also returned an average flux in series [1] of 0.22 μg/cm^2 /hr. Besides, the “flux value at the end of the flux profile relative to E2-HH” value in series [1] (higher than for E2-HH, 32° C. wet) was “about 2 times”. In addition, the thermodynamic activity entry in series [1] (versus E2-HH) was “increased thermodynamic activity with respect to E2-HH”.

As to `C[C@]12CC[C@@H]3c4ccc(O)cc4CC[C@H]3[C@@H]1CC[C@@H]2O` [estradiol, estra-1, 3, 5(10)-triene-3, 17β-diol], in series [2] (level the normal dosage is to produce, hormone replacement therapy), the “blood level in hormone replacement therapy” value is given as “about 30 ng/L”. For the same compound, in series [2] (level utilized, osteoporosis), the “blood level for treatment of osteoporosis” value is “approximately 40 ng/L”.
